Measured values from patent publication US8138158B2, “Compositions and methods for therapy for diseases characterized by defective chloride transport” (Children's Hospital & Research Center at Oakland, priority 1997, dated 2012).

Target: T1, CFTR Cl channels (Homo sapiens, UniProt P13569)
T1 construct: Calu-3 airway cells which express large amounts of native CFTR; endogenous in cells; host or cells: Calu-3 human airway epithelial cells
Experiment: Outside-out single channel patch clamp on Calu-3 cells
Type: cell-based
Experimental: Patch clamp analysis. Single channel patch clamp studies were performed on Calu-3 cells at 37° C. The outside-out recording mode was established via the whole cell mode as described (Fischer, H. (2001) in Methods in Molecular Medicine, […]. & Walker, J. M. (Humana Press Inc, Totowa), pp. 49-66.). The bath solution contained (in mM) 145 NaCl, 1.7 CaCl2, 1 MgCl2, 10 Hepes, 10 glucose, pH=7.4. The pipette solution contained (in mM): 15 N-methyl-D-glucamine (NMG) Cl, 10 EGTA, 1 MgCl2, 10 Hepes, 10 glucose, 120 NMG-gluconate, 5 MgATP, 0.1 LiGTP, pH=7.4. […] The regulatory role of vitamin C on Cl ion channel activity was studied in Calu-3 airway cells which express large amounts of native CFTR as their major Cl conductance ([…]., Widdicombe, J. H. & Wine, J. J. (1994) Am. J. Physiol. 266, […]-[…]). […] Details of the single channel recording are illustrated in FIG. 20C. […] At negative potentials no channel openings were resolved indicating Cl-over-gluconate selectivity. Cyclic AMP is the major intracellular messenger for the activation of CFTR. We tested the possibility that L-ascorbic acid increased intracellular cAMP levels [cAMP], by either turning on cAMP production or preventing cAMP degradation. FIG. 20E compares whole cell cAMP levels of Calu-3 cells challenged with either increasing concentrations of L-ascorbic acid or the cAMP agonist forskolin.

T1 sequence (P13569 whole entry): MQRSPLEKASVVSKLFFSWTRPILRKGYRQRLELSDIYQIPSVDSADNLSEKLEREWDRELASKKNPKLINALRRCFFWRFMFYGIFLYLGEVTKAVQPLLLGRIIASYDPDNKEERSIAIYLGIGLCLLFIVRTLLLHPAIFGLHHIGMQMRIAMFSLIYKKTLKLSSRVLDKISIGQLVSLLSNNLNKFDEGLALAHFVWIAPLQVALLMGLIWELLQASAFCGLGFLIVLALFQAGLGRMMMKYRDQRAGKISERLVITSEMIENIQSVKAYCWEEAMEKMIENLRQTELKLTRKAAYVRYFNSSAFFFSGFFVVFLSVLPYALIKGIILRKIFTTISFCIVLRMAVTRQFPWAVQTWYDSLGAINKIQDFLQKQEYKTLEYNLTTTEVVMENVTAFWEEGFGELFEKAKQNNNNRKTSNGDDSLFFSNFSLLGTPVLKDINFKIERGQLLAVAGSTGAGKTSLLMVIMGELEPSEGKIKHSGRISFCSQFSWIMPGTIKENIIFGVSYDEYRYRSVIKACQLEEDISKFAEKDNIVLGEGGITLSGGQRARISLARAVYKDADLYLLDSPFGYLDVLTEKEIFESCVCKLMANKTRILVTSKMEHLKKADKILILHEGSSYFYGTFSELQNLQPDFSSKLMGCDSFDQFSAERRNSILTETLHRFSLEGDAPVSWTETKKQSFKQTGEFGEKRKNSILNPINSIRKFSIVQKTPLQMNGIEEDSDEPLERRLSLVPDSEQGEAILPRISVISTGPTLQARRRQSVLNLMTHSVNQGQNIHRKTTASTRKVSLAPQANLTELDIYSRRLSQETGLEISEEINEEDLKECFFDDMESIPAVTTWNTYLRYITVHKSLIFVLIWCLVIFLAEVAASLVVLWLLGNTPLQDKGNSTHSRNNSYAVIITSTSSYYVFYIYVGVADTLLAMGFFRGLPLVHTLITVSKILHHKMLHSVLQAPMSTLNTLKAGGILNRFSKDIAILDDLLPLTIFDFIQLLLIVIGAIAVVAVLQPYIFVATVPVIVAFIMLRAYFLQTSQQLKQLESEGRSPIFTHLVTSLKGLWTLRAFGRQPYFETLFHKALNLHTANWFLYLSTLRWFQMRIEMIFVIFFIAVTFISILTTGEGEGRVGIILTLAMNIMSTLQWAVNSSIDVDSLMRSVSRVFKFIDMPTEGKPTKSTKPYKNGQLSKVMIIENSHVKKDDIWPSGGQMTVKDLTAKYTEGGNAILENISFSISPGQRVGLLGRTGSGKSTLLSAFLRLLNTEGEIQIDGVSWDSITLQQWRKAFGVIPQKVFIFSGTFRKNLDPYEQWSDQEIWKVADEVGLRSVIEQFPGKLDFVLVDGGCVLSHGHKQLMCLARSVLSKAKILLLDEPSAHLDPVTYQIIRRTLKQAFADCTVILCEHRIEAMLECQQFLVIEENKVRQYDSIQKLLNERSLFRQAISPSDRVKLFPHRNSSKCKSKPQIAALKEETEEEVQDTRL

average single channel open probability (Po) increased from zero to (100 μM L-ascorbic acid, n=4): 0.21±0.08
CFTR Cl channel openings (applied to extracellular surface of the patched membrane): induced openings of CFTR Cl channels
slope conductance of ascorbate-stimulated chloride conductance (n=4): 8.9±0.2 pS
SMILES: O=C1O[C@H](C(O)CO)C(O)=C1O (stereo partly drawn) [L-ascorbic acid, L-xyloascorbic acid]
